From patent US7964531B2, “3-phenoxy-4-pyridazinol derivatives and herbicidal composition containing the same” (Mitsui Chemicals Agro, Inc., priority 2001, dated 2011)

Row | Structure (SMILES) | melting point
1 | CCOCc1ccccc1Oc1nnc(Cl)cc1O [Compound No. 325, 6-Chloro-3-[2-(ethoxymethyl)phenoxy]-4-pyridazinol] | 173 to 174 °C
2 | Oc1cc(Cl)nnc1Oc1ccccc1C1OCCO1 [Compound No. 329, 6-Chloro-3-[2-(1,3-dioxolan-2-yl)phenoxy]-4-pyridazinol] | 143 to 145 °C
3 | CON=C(C)c1ccccc1Oc1nnc(Cl)cc1O [Compound No. 334, 1-{2-[(6-Chloro-4-hydroxy-3-pyridazinyl)oxy]phenyl}ethanone O-methyloxime] | 165 to 167 °C
4 | COC(=O)c1ccccc1Oc1nnc(Cl)cc1O [Compound No. 339, Methyl 2-[(6-chloro-4-hydroxy-3-pyridazinyl)oxy]benzoate] | 188 to 191 °C
5 | Oc1cc(Cl)nnc1Oc1ccccc1-c1ccccc1 [Compound No. 344, 3-([1,1′-Biphenyl]-2-yloxy)-6-chloro-4-pyridazinol] | 98 to 100 °C
6 | Oc1cc(Cl)nnc1Oc1ccccc1-c1ccsc1 [Compound No. 361, 6-Chloro-3-[2-(3-thienyl)phenoxy]-4-pyridazinol] | 207 to 209 °C
7 | CN(C)S(=O)(=O)n1ccc(-c2ccccc2Oc2nnc(Cl)cc2O)n1 [Compound No. 368, 3-{2-[(6-Chloro-4-hydroxy-3-pyridazinyl)oxy]phenyl}N,N-dimethyl-1H-pyrazole-1-sulfonamide] | 210 to 212 °C
8 | CN(C)S(=O)(=O)n1nccc1-c1ccccc1Oc1nnc(Cl)cc1O [Compound No. 369, 5-{2-[(6-Chloro-4-hydroxy-3-pyridazinyl)oxy]phenyl}N,N-dimethyl-1H-pyrazole-1-sulfonamide] | 151 to 152 °C
9 | Oc1cc(Cl)nnc1Oc1ccccc1-c1nc2ccccc2o1 [Compound No. 375, 3-[2-(1,3-Benzoxazol-2-yl)phenoxy]-6-chloro-4-pyridazinol] | 165 to 167 °C
10 | Oc1cc(Cl)nnc1Oc1ccccc1-c1nc2ccccc2s1 [Compound No. 376, 3-[2-(1,3-Benzothiazol-2-yl)phenoxy]-6-chloro-4-pyridazinol] | 215 to 217 °C
11 | Nc1ccccc1OC1(Cl)NN=CC=C1O (stereo not drawn) [Compound No. 377, 3-(2-Aminophenoxy)-3-chloro-4-pyridazinol] | 249 to 250 °C
12 | O=[N+]([O-])c1ccccc1Oc1nnc(Cl)cc1O [Compound No. 383, 6-Chloro-3-(2-nitrophenoxy)-4-pyridazinol] | 99 to 100 °C
13 | Oc1ccccc1Oc1nnc(Cl)cc1O [Compound No. 384, 6-Chloro-3-(2-hydroxyphenoxy)-4-pyridazinol] | 216 to 219 °C
14 | COc1ccccc1Oc1nnc(Cl)cc1O [Compound No. 385, 6-Chloro-3-(2-methoxyphenoxy)-4-pyridazinol] | 191 to 194 °C
15 | CCOc1ccccc1Oc1nnc(Cl)cc1O [Compound No. 386, 6-Chloro-3-(2-ethoxyphenoxy)-4-pyridazinol] | 155 to 175 °C
16 | CC(C)Oc1ccccc1Oc1nnc(Cl)cc1O [Compound No. 387, 6-Chloro-3-(2-isopropoxyphenoxy)-4-pyridazinol] | 178 to 179 °C
17 | Oc1cc(Cl)nnc1Oc1ccccc1OC(F)F [Compound No. 390, 6-Chloro-3-[2-(difluoromethoxy)phenoxy]-4-pyridazinol] | 210 to 212 °C
18 | CSc1ccccc1Oc1nnc(Cl)cc1O [Compound No. 401, 6-Chloro-3-[2-(methylsulfanyl)phenoxy]-4-pyridazinol] | 174 to 175 °C
19 | CC(C)Sc1ccccc1Oc1nnc(Cl)cc1O [Compound No. 403, 6-Chloro-3-[2-(isopropylsulfanyl)phenoxy]-4-pyridazinol] | 176 to 177 °C
20 | Oc1cc(Cl)nnc1Oc1cccc(I)c1 [Compound No. 412, 6-Chloro-3-(3-iodophenoxy)-4-pyridazinol] | 202 to 203 °C
21 | Cc1cccc(Oc2nnc(Cl)cc2O)c1 [Compound No. 413, 6-Chloro-3-(3-methylphenoxy)-4-pyridazinol] | 205 to 208 °C
22 | CC(C)c1cccc(Oc2nnc(Cl)cc2O)c1 [Compound No. 415, 6-Chloro-3-(3-isopropylphenoxy)-4-pyridazinol] | 176 to 177 °C
23 | CC(C)(C)c1cccc(Oc2nnc(Cl)cc2O)c1 [Compound No. 416, 3-(3-tert-Butylphenoxy)-6-chloro-4-pyridazinol] | 203 to 207 °C
24 | Oc1cc(Cl)nnc1Oc1cccc(C2CC2)c1 [Compound No. 417, 6-Chloro-3-(3-cyclopropylphenoxy)-4-pyridazinol] | 179 to 181 °C
25 | Oc1cc(Cl)nnc1Oc1cccc(C(F)(F)F)c1 [Compound No. 418, 6-Chloro-3-[3-(trifluoromethyl)phenoxy]-4-pyridazinol] | 213 to 216 °C
26 | Oc1cc(Cl)nnc1Oc1cccc(-c2ccco2)c1 [Compound No. 419, 6-Chloro-3-[3-(2-furyl)phenoxy]-4-pyridazinol] | 200 to 202 °C
27 | N#Cc1cccc(Oc2nnc(Cl)cc2O)c1 [Compound No. 420, 3-[(6-Chloro-4-hydroxy-3-pyridazinyl)oxy]benzonitrile] | 226 to 229 °C

Row | Structure (SMILES) | melting point
28 | O=Cc1cccc(Oc2nnc(Cl)cc2O)c1 [Compound No. 421, 3-[(6-Chloro-4-hydroxy-3-pyridazinyl)oxy]benzaldehyde] | 188 to 192 °C
29 | CC(=O)c1cccc(Oc2nnc(Cl)cc2O)c1 [Compound No. 422, 1-{3-[(6-Chloro-4-hydroxy-3-pyridazinyl)oxy]phenyl}ethanone] | 195 to 198 °C
30 | O=[N+]([O-])c1cccc(Oc2nnc(Cl)cc2O)c1 [Compound No. 424, 6-Chloro-3-(3-nitrophenoxy)-4-pyridazinol] | 217 to 219 °C
31 | COc1cccc(Oc2nnc(Cl)cc2O)c1 [Compound No. 425, 6-Chloro-3-(3-methoxyphenoxy)-4-pyridazinol] | 199 to 203 °C
32 | Oc1cc(Cl)nnc1Oc1ccc(F)cc1 [Compound No. 426, 6-Chloro-3-(4-fluorophenoxy)-4-pyridazinol] | 241 to 248 °C
33 | Oc1cc(Cl)nnc1Oc1ccc(Cl)cc1 [Compound No. 427, 6-Chloro-3-(4-chlorophenoxy)-4-pyridazinol] | 226 to 231 °C
34 | Cc1ccc(Oc2nnc(Cl)cc2O)cc1 [Compound No. 430, 6-Chloro-3-(4-methylphenoxy)-4-pyridazinol] | 261 to 263 °C
35 | CC(C)c1ccc(Oc2nnc(Cl)cc2O)cc1 [Compound No. 432, 6-Chloro-3-(4-isopropylphenoxy)-4-pyridazinol] | 233 to 235 °C
36 | CC(C)(C)c1ccc(Oc2nnc(Cl)cc2O)cc1 [Compound No. 433, 3-(4-tert-Butylphenoxy)-6-chloro-4-pyridazinol] | 224 to 225 °C
37 | Oc1cc(Cl)nnc1Oc1ccc(C2CC2)cc1 [Compound No. 434, 6-Chloro-3-(4-cyclopropylphenoxy)-4-pyridazinol] | 221 to 227 °C
38 | COc1ccc(Oc2nnc(Cl)cc2O)cc1 [Compound No. 435, 6-Chloro-3-(4-methoxyphenoxy)-4-pyridazinol] | 260 to 263.5 °C
39 | Oc1cc(Cl)nnc1Oc1cccc(F)c1F [Compound No. 437, 6-Chloro-3-(2,3-difluorophenoxy)-4-pyridazinol] | 188 to 193 °C
40 | Oc1cc(Cl)nnc1Oc1cccc(Cl)c1F [Compound No. 438, 6-Chloro-3-(3-chloro-2-fluorophenoxy)-4-pyridazinol] | 187 to 195 °C
41 | Oc1cc(Cl)nnc1Oc1cccc(C(F)(F)F)c1F [Compound No. 441, 6-Chloro-3-[2-fluoro-3-(trifluoromethyl)phenoxy]-4-pyridazinol] | 185 to 189 °C
42 | Oc1cc(Cl)nnc1Oc1cccc(Cl)c1Cl [Compound No. 443, 6-Chloro-3-(2,3-dichlorophenoxy)-4-pyridazinol] | 233 to 238 °C
43 | Oc1cc(Cl)nnc1Oc1cccc(C(F)(F)F)c1Cl [Compound No. 446, 6-Chloro-3-[2-chloro-3-(trifluoromethyl)phenoxy]-4-pyridazinol] | 170 to 200 °C
44 | Cc1cccc(Oc2nnc(Cl)cc2O)c1Br [Compound No. 450, 3-(2-Bromo-3-methylphenoxy)-6-chloro-4-pyridazinol] | 140 to 141 °C
45 | Cc1c(F)cccc1Oc1nnc(Cl)cc1O [Compound No. 453, 6-Chloro-3-(3-fluoro-2-methylphenoxy)-4-pyridazinol] | 242 to 244 °C
46 | Cc1c(Cl)cccc1Oc1nnc(Cl)cc1O [Compound No. 454, 6-Chloro-3-(3-chloro-2-methylphenoxy)-4-pyridazinol] | 250 to 252 °C
47 | Cc1cccc(Oc2nnc(Cl)cc2O)c1C [Compound No. 456, 6-Chloro-3-(2,3-dimethylphenoxy)-4-pyridazinol] | 240 to 241 °C
48 | Cc1c(Oc2nnc(Cl)cc2O)cccc1[N+](=O)[O-] [Compound No. 458, 6-Chloro-3-(2-methyl-3-nitrophenoxy)-4-pyridazinol] | 241 to 244 °C
49 | COc1cccc(Oc2nnc(Cl)cc2O)c1C [Compound No. 459, 6-Chloro-3-(3-methoxy-2-methylphenoxy)-4-pyridazinol] | 224 to 237 °C
50 | Cc1cccc(Oc2nnc(Cl)cc2O)c1C1CC1 [Compound No. 472, 6-Chloro-3-(2-cyclopropyl-3-methylphenoxy)-4-pyridazinol] | 197 to 198 °C
51 | COc1cccc(Oc2nnc(Cl)cc2O)c1C1CC1 [Compound No. 478, 6-Chloro-3-(2-cyclopropyl-3-methoxyphenoxy)-4-pyridazinol] | 184 to 185 °C
52 | Cc1cccc(Oc2nnc(Cl)cc2O)c1[N+](=O)[O-] [Compound No. 498, 6-Chloro-3-(3-methyl-2-nitrophenoxy)-4-pyridazinol] | 191 to 200 °C
53 | COc1cccc(Oc2nnc(Cl)cc2O)c1OC [Compound No. 503, 6-Chloro-3-(2,3-dimethoxyphenoxy)-4-pyridazinol] | 199 to 201 °C
54 | Oc1cc(Cl)nnc1Oc1cccc2c1CC2 [Compound No. 505, 3-(Bicyclo[4.2.0]octa-1,3,5-trien-2-yloxy)-6-chloro-4-pyridazinol] | 145 to 155 °C
